How the values were obtained:
[1] = Lipophilicity (logD7.4), n-octanol/PBS pH 7.4; type: physicochemical; conditions: n-octanol/PBS pH 7.4; read-out: logD7.4
Experimental: Cell-based experiments and determination of lipophilicity (logD7.4) were performed as previously published. A detailed description of the in vitro experiments is provided in the Supplementary Materials.
Cell Culture. CCK-2R-expressing rat pancreatic cancer cells AR42J (CLS GmbH, Eppelheim, Germany) were cultivated in monolayers in CELLSTAR® cell culture flasks acquired from Greiner Bio-One GmbH (Frickenhausen, Germany) at 37°C in a humidified atmosphere (5% CO2) using a HERAcell 150i-Incubator (Thermo Fisher Scientific Inc., Waltham, United States). The nutrient medium RPMI 1640 medium, supplemented with 5 mM L-Gln 5 mL non-essential amino acids (100×) and 10% FCS, was used. Furthermore, a Dulbecco’s PBS solution with 0.1% EDTA (v/v) was applied to detach the cells for cell passaging. The detached cells were counted using a Neubauer hemocytometer (Paul Marienfeld, Lauda-Königshofen, Germany). In addition, all operations under sterile conditions were accomplished using a MSC-Advantage safety workbench (Thermo Fisher Scientific Inc., Waltham, United States).
Determination of IC50. AR42J cells (2.0 × 10^5 cells/well) were seeded into 24-well plates 24 ± 2 h prior to testing using 1 mL of nutrient medium (RPMI 1640, 5 mM L-Gln, 5 mL non-essential amino acids (100×), 10% FCS). Cells were incubated at 37°C in a humidified atmosphere (5% CO2).
After the removal of the medium, each well was washed with 500 μL PBS. For the cell-based assay, 200 μL of the nutrient medium (+5% BSA), [ 177Lu]Lu-DOTA-PP-F11N (25 μL, 0.3 pmol) as a radiolabeled reference and 25 μL of the peptide of interest in increasing concentrations (10 −10 to 10−4 M) were added to the cells in triplicate. Thereafter, the assay was incubated for 3 h at 37°C and the supernatant was collected. The cells were washed with 300 μL PBS and the collected supernatant fractions were unified.
After lysis of the cells with NaOH (300 μL, 1 N) for 15 min, the respective wells were washed with NaOH (300 μ L, 1 N) and both fractions were unified. The radioactivity of both the supernatant and the lysed fractions were quantified using a γ-counter (PerkinElmer Inc., Waltham, United States). The obtained data were evaluated via the GraphPad PRISM software (GraphPad Software Inc., La Jolla, United States), which calculates the half-maximal inhibitory concentration (IC50) of the peptides.
Internalization Studies. For the determination of the internalization kinetics of the various peptides, AR42J cells (3.0 × 10^5 cells/well) were seeded into polylysine-coated 24-well plates, adding 1 mL of nutrient medium. Afterwards, the cells were incubated for 24 ± 2 h at 37°C in a humidified atmosphere […]
On the day of the experiment, the medium was removed, and each well was washed with nutrient medium (300 μL). Afterwards 200 μL of nutrient medium, 25 μL of the 177Lu-labeled peptide (0.3 pmol, n = 6) and either 25 μL of nutrient medium for internalization studies ( n = 3) or 25 μL of [natLu]Lu-DOTA-PP-F11N (10 μmol) for competition studies ( n = 3) were added. Thereafter, the assay was incubated for various time points (1, 2, 4 and 6 h) at 37°C in a humidified atmosphere (5% CO2). After incubation, the cells were put on ice for at least 1 min to stop internalization kinetics and the supernatant was collected. Then, the cells were washed with an ice-cold nutrient medium (300 μL) and both fractions were unified. […] The radioactivity of the supernatant, the acid wash and the lysed fractions were quantified using a γ-counter. […]

[2] = tested on: AR42J tumor-bearing CB17-SCID mice; conditions: 24 h p.i., 100 pmol; cited from earlier work
CCK-2R = target: T1, CCK-2R (Rattus norvegicus, UniProt P30553); set-up: method as in earlier work; conditions: % of applied activity, 37 °C, AR42J cells, identical conditions, cited from earlier work
T1 construct: CCK-2R-expressing rat pancreatic cancer cells AR42J; host or cells: AR42J (rat pancreatic cancer cells)
T1 sequence (P30553 1-452): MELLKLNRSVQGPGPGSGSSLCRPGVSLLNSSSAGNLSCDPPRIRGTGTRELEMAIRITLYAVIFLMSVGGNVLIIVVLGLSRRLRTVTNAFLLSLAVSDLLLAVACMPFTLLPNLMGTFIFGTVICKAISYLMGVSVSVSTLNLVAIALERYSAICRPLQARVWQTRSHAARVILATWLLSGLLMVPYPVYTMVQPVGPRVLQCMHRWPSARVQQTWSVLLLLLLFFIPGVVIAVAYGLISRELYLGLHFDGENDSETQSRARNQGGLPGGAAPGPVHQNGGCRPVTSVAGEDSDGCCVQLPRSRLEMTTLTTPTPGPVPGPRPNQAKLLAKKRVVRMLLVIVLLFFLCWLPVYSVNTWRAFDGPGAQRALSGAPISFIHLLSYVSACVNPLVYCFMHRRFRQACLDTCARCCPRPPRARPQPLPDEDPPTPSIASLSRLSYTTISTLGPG

logD [1]: < -4
SMILES: CCCC[C@H](NC(=O)[C@H](Cc1c[nH]c2ccccc12)NC(=O)CNC(=O)[C@H](Cc1ccc(O)cc1)NC(=O)[C@H](C)NC(=O)[C@@H](CCC(=O)O)NC(=O)[C@@H](CCC(=O)O)NC(=O)[C@@H](CCC(=O)O)NC(=O)[C@@H](CCC(=O)O)NC(=O)[C@@H](CCC(=O)O)NC(=O)[C@@H](CCC(=O)O)NC(=O)CN1CCN(CC(=O)O)CCN(CC(=O)O)CCN(CC(=O)O)CC1)C(=O)N[C@@H](CC(=O)O)C(=O)N[C@@H](Cc1ccccc1)C(N)=O [[^177Lu]Lu-DOTA-PP-F11N, metal not drawn]
activity uptake in the tumor [2]: 1.9 ± 0.8 %ID/g
Internalization Values (%) 1 h (CCK-2R; 1 h): 6.44 ± 0.32%
Internalization Values (%) 2 h (CCK-2R; 2 h): 10.1 ± 0.4%
Internalization Values (%) 4 h (CCK-2R; 4 h): 17.5 ± 1.0%
Internalization Values (%) 6 h (CCK-2R; 6 h): 22.4 ± 0.6%

Reference: publication PMC10054553, “Development of the First ^18F-Labeled Radiohybrid-Based Minigastrin Derivative with High Target Affinity and Tumor Accumulation by Substitution of the Chelating Moiety” (Pharmaceutics, 2023)
